From PubChem BioAssay AID651581 (Sanford-Burnham Center for Chemical Genomics, 2012)
Calls of active or inactive are those of the source. The rule behind the calls is not given here.

Legend:
[1] = target: Hypoxia-inducible factor 1-alpha (Homo sapiens) (UniProt Q16665); experiment: potency against HIF reporters across cell lines – luminescence, panel, selectivity assay for HIF-2a inhibitor project, dose response (AID 651581); conditions: human cell HIF reporter, HIF-1a
[2] = target: Endothelial PAS domain-containing protein 1 (Homo sapiens) (UniProt Q99814); experiment: as above; conditions: human cell HIF reporter

Hypoxia-inducible factor 1-alpha (Homo sapiens), sequence (Q16665 whole entry, looked up, the tested form may be a part): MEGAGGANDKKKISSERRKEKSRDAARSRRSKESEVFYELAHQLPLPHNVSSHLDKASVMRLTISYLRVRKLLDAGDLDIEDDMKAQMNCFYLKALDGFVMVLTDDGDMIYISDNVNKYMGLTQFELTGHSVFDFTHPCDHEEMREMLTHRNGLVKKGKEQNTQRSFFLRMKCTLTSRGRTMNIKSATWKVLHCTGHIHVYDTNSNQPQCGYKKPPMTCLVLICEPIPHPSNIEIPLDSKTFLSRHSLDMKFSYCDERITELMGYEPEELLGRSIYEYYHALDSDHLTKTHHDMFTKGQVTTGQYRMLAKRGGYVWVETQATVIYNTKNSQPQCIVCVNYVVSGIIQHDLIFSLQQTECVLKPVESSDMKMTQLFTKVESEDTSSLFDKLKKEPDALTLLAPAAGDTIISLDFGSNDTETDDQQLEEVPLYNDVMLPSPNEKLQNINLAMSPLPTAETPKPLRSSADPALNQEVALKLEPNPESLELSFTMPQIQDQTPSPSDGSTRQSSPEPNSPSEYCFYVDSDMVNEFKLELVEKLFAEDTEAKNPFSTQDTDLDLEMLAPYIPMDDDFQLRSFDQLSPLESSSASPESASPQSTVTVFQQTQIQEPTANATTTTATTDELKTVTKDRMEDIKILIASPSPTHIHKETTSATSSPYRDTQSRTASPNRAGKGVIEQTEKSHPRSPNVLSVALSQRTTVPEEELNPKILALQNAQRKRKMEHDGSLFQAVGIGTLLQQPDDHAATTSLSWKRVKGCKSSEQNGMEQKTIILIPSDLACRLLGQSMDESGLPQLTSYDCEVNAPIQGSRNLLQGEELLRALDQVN

SMILES | IC50 ([1]; run 1) [µM] | IC50 ([1]; run 2) [µM] | IC50 ([2]; HIF-2a PANC, mean of runs) | IC50 ([2]; HIF-2a PANC, run 1) [µM] | IC50 ([2]; HIF-2a PANC, run 2) [µM] | IC50 ([2]; HIF-2a, mean of runs) | IC50 ([2]; HIF-2a, run 1) [µM] | IC50 ([2]; HIF-2a, run 2) [µM] | IC50 ([1]; mean of runs)
O=Cc1cn(Cc2cccc([N+](=O)[O-])c2)c2ccccc12 | > 99 | > 99 | > 99 µM (inactive) | > 99 | > 99 | 0.978 µM | 0.982 | 0.975 | –
FC(F)(F)c1cnc(NNC(=S)Nc2ccccc2)c(Cl)c1 | 13.9 | 44 | 2.3 µM | 1.23 | 3.36 | 7.78 µM | 8.41 | 7.15 | 28.9 µM
CC(=O)N/N=C\c1cccc(OC/C=C/c2ccccc2)c1 | > 99 | > 99 | > 99 µM (inactive) | > 99 | > 99 | < 10 µM | < 10 | < 30 | –
CSC(SC)=C(C#N)C(=O)c1ccccc1 | 21.3 | 31.1 | – | > 99 | 77 | 6.18 µM | 6.56 | 5.8 | 26.2 µM
Cc1nc2cc(-c3ccccc3)nn2c(C)c1CCC(=O)N1CCN(c2ccccc2)CC1 | 8.3 | 7.99 | 1.59 µM | 1.41 | 1.77 | 1.05 µM | 0.978 | 1.13 | 8.15 µM
CC(=O)Nc1ccc(OS(=O)(=O)c2ccc(C)cc2C)cc1 | 28.2 | 21.6 | 7.66 µM | 5.49 | 9.84 | 3.79 µM | 3.7 | 3.87 | 24.9 µM
N=c1nc(SCCC(=O)O)ss1 | 7.84 | 14.4 | inactive | 30.8 | 39.5 | 6.38 µM | 6.36 | 6.39 | inactive
CCOc1ccc2nc(SCc3ccc(CC(=O)O)cc3)c(C#N)cc2c1 | 35.4 | 13.8 | 7.1 µM | 10.9 | 3.27 | 6.7 µM | 5.75 | 7.65 | 24.6 µM
COc1cccc(NC(=O)c2nc(S(C)(=O)=O)ncc2Cl)c1 | 14.7 | 28.2 | inactive | 32.4 | 89.6 | inactive | 12.2 | 11.3 | inactive
COC(=O)c1cccc(-c2noc(-c3ccccc3F)n2)c1 | > 99 | > 99 | 9.77 µM | 9.59 | 9.94 | < 10 µM | < 10 | < 10 | –
CC(C)COc1ccc(C(=S)N2CCCC2)cc1 | > 99 | > 99 | 14.5 µM | 13.6 | 15.5 | 4.91 µM | 4.41 | 5.42 | –
Cc1ccc(C(C)C)c(OCc2ccc(C(=O)N/N=C/c3ccc(C(=O)O)cc3)cc2)c1 | > 99 | > 99 | 0.378 µM | 0.507 | 0.248 | 0.45 µM | 0.421 | 0.479 | –
Cc1nn(-c2ccccc2Cl)c(Cl)c1/C=N/Nc1cccc(C(=O)O)c1 | > 99 | > 99 | > 99 µM (inactive) | > 99 | > 99 | inactive | 23.5 | 24.2 | –
O=Nc1c(O)ccc2cc(S(=O)(=O)O)ccc12 | 3.06 | > 99 | inactive | 25.5 | 51.1 | 8.77 µM | 8.62 | 8.91 | –
CC(=O)Nc1ccc(Oc2sc(C(=O)c3ccccc3)c(N)c2C#N)cc1 | 27.7 | 28.5 | inactive | 47.2 | 65.4 | inactive | 17.5 | 10.9 | inactive
N#Cc1c(NC(=O)CCCC(=O)O)sc2c1CCCCC2 | > 99 | > 99 | 0.417 µM | 0.379 | 0.455 | – | 51.8 | < 0.19 | –
CC(=O)/C=C1/C(=O)Nc2ccccc21 | 32.6 | 26.2 | > 99 µM (inactive) | > 99 | > 99 | inactive | 13.9 | 14.2 | inactive
O=C(O)c1cccc(N/N=C/c2cccs2)c1 | > 99 | > 99 | – | > 99 | 45.8 | 5.74 µM | 5.56 | 5.91 | –

SMILES | IC50 ([1]; run 1) [µM] | IC50 ([1]; run 2) [µM] | IC50 ([2]; HIF-2a PANC, mean of runs) | IC50 ([2]; HIF-2a PANC, run 1) [µM] | IC50 ([2]; HIF-2a PANC, run 2) [µM] | IC50 ([2]; HIF-2a, mean of runs) | IC50 ([2]; HIF-2a, run 1) [µM] | IC50 ([2]; HIF-2a, run 2) [µM] | IC50 ([1]; mean of runs)
COc1ccccc1C(C[N+](=O)[O-])c1c(N)n(C)c(=O)n(C)c1=O (stereo not given) | 20.9 | 16.9 | – | > 99 | 51.9 | 9.86 µM | 10.2 | 9.56 | inactive
CC(=O)c1ccc(NC(=O)c2cnn3ccccc23)cc1 | 12.9 | 20.6 | 18.4 µM | 20.3 | 16.6 | inactive | 11.7 | 9.93 | inactive
Cc1nc(SCc2ccc(C(=O)O)cc2)nc2c1CCCC2 | 12.3 | 7.67 | inactive | 20.8 | 23.6 | 4.53 µM | 4.31 | 4.75 | inactive
O=C(NCc1ccccc1)C(=O)Nc1cccc(C(=O)O)c1 | > 99 | > 99 | > 99 µM (inactive) | > 99 | > 99 | 9.97 µM | 9.98 | 9.95 | –
COc1ccc(-n2nc3ccc(N)cc3n2)cc1 | 24.9 | 62.1 | 2.26 µM | 3.23 | 1.3 | inactive | 7.4 | 14.9 | 43.5 µM
Cc1ccc(S(=O)(=O)Nc2cccc3cccnc23)cc1 | > 99 | > 99 | > 99 µM (inactive) | > 99 | > 99 | 1.12 µM | 1.15 | 1.09 | –
COc1ccc(OCc2cccc(C(=O)NN)c2)cc1 | > 99 | > 99 | > 99 µM (inactive) | > 99 | > 99 | 7.89 µM | 7.68 | 8.1 | –
Cc1cccc(NC(=S)NNc2ncc(C(F)(F)F)cc2Cl)c1 | 33.1 | 27.1 | 2.01 µM | 2.31 | 1.71 | 8.98 µM | 8.85 | 9.11 | 30.1 µM
CCOC(=O)Cn1cc(/C=C/[N+](=O)[O-])c2ccccc21 | 17.7 | 25 | > 99 µM (inactive) | > 99 | > 99 | inactive | 13.5 | 13.2 | inactive
CCCCOC(=O)c1ccc(NC(=S)NC(=O)c2c(Br)c(C)nn2C)cc1 | > 99 | > 99 | inactive | 8.11 | 16.2 | 0.894 µM | 0.821 | 0.968 | –
Cc1ccc(C(C)C)c(OCc2ccc(-c3nnco3)cc2)c1 | > 99 | > 99 | > 99 µM (inactive) | > 99 | > 99 | 1.7 µM | 1.92 | 1.49 | –
COc1ccc(OCc2cccc(C(=O)Nc3cc(C)on3)c2)cc1 | > 99 | > 99 | – | > 99 | < 30 | < 30 µM (inactive) | < 30 | < 30 | –
CCOC(=O)C1CCN(Cc2cc(=O)oc3c(C)c(C)ccc23)CC1 | 31.7 | 25.9 | 14.2 µM | 19.7 | 8.77 | 7.52 µM | 7.96 | 7.07 | 28.8 µM
Cc1csc(NC(=O)c2cn3ccccc3n2)n1 | 11.9 | 12.5 | 17.5 µM | 20.3 | 14.8 | 7.98 µM | 7.58 | 8.38 | inactive
Cc1nc2cc(-c3ccccc3)nn2c(C)c1CCC(=O)N1CCC2(CC1)OCCO2 | 53.9 | 52 | 2.49 µM | 2.63 | 2.35 | 0.832 µM | 0.742 | 0.921 | 53 µM
O=C(O)c1cccc(-c2nnn(Cc3ccccc3Cl)n2)c1 | > 99 | > 99 | > 99 µM (inactive) | > 99 | > 99 | < 30 µM (inactive) | < 30 | < 30 | –
Cn1ncc2c(O/N=C(\N)c3ccc(C(C)(C)C)cc3)ncnc21 | > 99 | 48.2 | – | < 30 | 45.6 | 4.17 µM | 4.26 | 4.08 | –
O=C(Nc1ccc(NC(=S)NC(=O)c2ccco2)cc1)c1ccc(Br)cc1 | 0.639 | > 99 | > 99 µM (inactive) | > 99 | > 99 | 1.02 µM | 1.18 | 0.871 | –
